From ChEMBL document CHEMBL1201862, “PubChem BioAssay data set” (2004)
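Grown in 96-well plates, cells were treated for 48 hours with each compound at five concentrations. Insufficient inhibition: endpoint recorded as highest concentration tested. Abbreviation: GI50, concentration required for 50% inhibition of growth.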 Calls of active or inactive are those of the source. No stated cut-off is given here; in the data, active = GI50 up to about 1.1 µM and inactive = higher.

How the values were obtained:
Experiment in all cases: NCI anticancer screen, dose series, 48 h
HCC 2998 = tested on: HCC 2998
MCF7 = tested on: MCF7
Hs-578T = tested on: Hs-578T
OVCAR-8 = tested on: OVCAR-8
SF-295 = tested on: SF-295
SW-620 = tested on: SW-620
COLO 205 = tested on: COLO 205
IGROV-1 = tested on: IGROV-1
SN12C = tested on: SN12C
RPMI-8226 = tested on: RPMI-8226
EKVX = tested on: EKVX
Malme-3M = tested on: Malme-3M
DU-145 = tested on: DU-145
LOX IMVI = tested on: LOX IMVI
ACHN = tested on: ACHN
SK-OV-3 = tested on: SK-OV-3
HL-60 = tested on: HL-60
A498 = tested on: A498
NCI-H226 = tested on: NCI-H226
OVCAR-4 = tested on: OVCAR-4
OVCAR-3 = tested on: OVCAR-3
SF-268 = tested on: SF-268
HCT-116 = tested on: HCT-116
MDA-MB-435 = tested on: MDA-MB-435
SNB-19 = tested on: SNB-19
SR = tested on: SR
HOP-92 = tested on: HOP-92
UACC-62 = tested on: UACC-62
NCI/ADR-RES = tested on: NCI/ADR-RES
SK-MEL-5 = tested on: SK-MEL-5
CAKI-1 = tested on: CAKI-1
786-0 = tested on: 786-0
CCRF-CEM = tested on: CCRF-CEM
HOP-62 = tested on: HOP-62
MDA-N = tested on: MDA-N
UACC-257 = tested on: UACC-257
MDA-MB-231 = tested on: MDA-MB-231
HCT-15 = tested on: HCT-15
MOLT-4 = tested on: MOLT-4
PC-3 = tested on: PC-3
TK-10 = tested on: TK-10
A549 = tested on: A549
K562 = tested on: K562
SNB-75 = tested on: SNB-75
SK-MEL-2 = tested on: SK-MEL-2
UO-31 = tested on: UO-31
BT-549 = tested on: BT-549
NCI-H522 = tested on: NCI-H522
SF-539 = tested on: SF-539
NCI-H460 = tested on: NCI-H460
SK-MEL-28 = tested on: SK-MEL-28
HT-29 = tested on: HT-29
NCI-H23 = tested on: NCI-H23
KM12 = tested on: KM12
OVCAR-5 = tested on: OVCAR-5
U-251 = tested on: U-251
M14 = tested on: M14
T47D = tested on: T47D

COc1cc(/C=C2/CCS(=O)(=O)c3ccc(C)cc3C2=O)cc(OC)c1OC
GI50 (HCC 2998): 4.34 µM (inactive) | GI50 (MCF7): 4.19 µM (inactive) | GI50 (Hs-578T): 4.73 µM (inactive) | GI50 (OVCAR-8): 2.7 µM (inactive) | GI50 (SF-295): 14.1 µM (inactive) | GI50 (SW-620): 4.76 µM (inactive) | GI50 (COLO 205): 4.85 µM (inactive) | GI50 (IGROV-1): 4.06 µM (inactive) | GI50 (SN12C): 3.66 µM (inactive) | GI50 (RPMI-8226): 2.65 µM (inactive) | GI50 (EKVX): 12.1 µM (inactive) | GI50 (Malme-3M): 3.63 µM (inactive) | GI50 (DU-145): 3.48 µM (inactive) | GI50 (LOX IMVI): 2.61 µM (inactive) | GI50 (ACHN): 3.66 µM (inactive) | GI50 (SK-OV-3): 7.35 µM (inactive) | GI50 (HL-60): 1.41 µM (inactive) | GI50 (A498): 5.78 µM (inactive) | GI50 (NCI-H226): 6.34 µM (inactive) | GI50 (OVCAR-4): 9.38 µM (inactive) | GI50 (OVCAR-3): 5.5 µM (inactive) | GI50 (SF-268): 4.49 µM (inactive) | GI50 (HCT-116): 2.95 µM (inactive) | GI50 (MDA-MB-435): 3.79 µM (inactive) | GI50 (SNB-19): 4.1 µM (inactive) | GI50 (SR): 2.32 µM (inactive) | GI50 (HOP-92): 4.18 µM (inactive) | GI50 (UACC-62): 4.12 µM (inactive) | GI50 (NCI/ADR-RES): 3.14 µM (inactive) | GI50 (SK-MEL-5): 2.53 µM (inactive) | GI50 (CAKI-1): 4.65 µM (inactive) | GI50 (786-0): 3.3 µM (inactive) | GI50 (CCRF-CEM): 2.85 µM (inactive) | GI50 (HOP-62): 6.04 µM (inactive) | GI50 (MDA-N): 4.29 µM (inactive) | GI50 (UACC-257): 4.15 µM (inactive) | GI50 (MDA-MB-231): 3.58 µM (inactive) | GI50 (HCT-15): 4.59 µM | GI50 (MOLT-4): 3.62 µM (inactive) | GI50 (PC-3): 6.73 µM (inactive) | GI50 (TK-10): 5.37 µM (inactive) | GI50 (A549): 4.88 µM (inactive) | GI50 (K562): 2.06 µM (inactive) | GI50 (SNB-75): 5.27 µM (inactive) | GI50 (SK-MEL-2): 9.75 µM (inactive) | GI50 (UO-31): 5.75 µM (inactive) | GI50 (BT-549): 3.52 µM (inactive) | GI50 (NCI-H522): 3.39 µM (inactive) | GI50 (SF-539): 2.59 µM (inactive) | GI50 (NCI-H460): 3.23 µM (inactive) | GI50 (SK-MEL-28): 3.59 µM (inactive) | GI50 (HT-29): 3.92 µM (inactive) | GI50 (NCI-H23): 3.64 µM (inactive) | GI50 (KM12): 4.54 µM (inactive) | GI50 (OVCAR-5): 5.87 µM (inactive) | GI50 (U-251): 4.14 µM (inactive) | GI50 (M14): 5.33 µM (inactive) | GI50 (T47D): 3.6 µM (inactive)

C/C(=N\NC(N)=S)c1cccs1.OB(O)c1ccccc1
GI50 (HCC 2998): > 100 µM (inactive) | GI50 (MCF7): > 100 µM (inactive) | GI50 (Hs-578T): > 100 µM (inactive) | GI50 (OVCAR-8): > 100 µM (inactive) | GI50 (SF-295): > 100 µM (inactive) | GI50 (SW-620): > 100 µM (inactive) | GI50 (COLO 205): > 100 µM (inactive) | GI50 (IGROV-1): > 100 µM (inactive) | GI50 (SN12C): > 100 µM (inactive) | GI50 (RPMI-8226): > 100 µM (inactive) | GI50 (Malme-3M): > 100 µM (inactive) | GI50 (DU-145): > 100 µM (inactive) | GI50 (LOX IMVI): > 100 µM (inactive) | GI50 (ACHN): > 100 µM (inactive) | GI50 (SK-OV-3): > 100 µM (inactive) | GI50 (HL-60): > 100 µM (inactive) | GI50 (A498): > 100 µM (inactive) | GI50 (NCI-H226): > 100 µM (inactive) | GI50 (OVCAR-4): > 100 µM (inactive) | GI50 (OVCAR-3): > 100 µM (inactive) | GI50 (SF-268): > 100 µM (inactive) | GI50 (HCT-116): > 100 µM (inactive) | GI50 (MDA-MB-435): > 100 µM (inactive) | GI50 (SNB-19): > 100 µM (inactive) | GI50 (SR): > 100 µM (inactive) | GI50 (HOP-92): > 100 µM (inactive) | GI50 (UACC-62): > 100 µM (inactive) | GI50 (NCI/ADR-RES): > 100 µM (inactive) | GI50 (SK-MEL-5): > 100 µM (inactive) | GI50 (786-0): > 100 µM (inactive) | GI50 (CCRF-CEM): > 100 µM (inactive) | GI50 (HOP-62): > 100 µM (inactive) | GI50 (MDA-N): > 100 µM (inactive) | GI50 (MDA-MB-231): > 100 µM (inactive) | GI50 (HCT-15): > 100 µM | GI50 (MOLT-4): > 100 µM (inactive) | GI50 (PC-3): > 100 µM (inactive) | GI50 (TK-10): > 100 µM (inactive) | GI50 (A549): > 100 µM (inactive) | GI50 (K562): > 100 µM (inactive) | GI50 (SNB-75): > 100 µM (inactive) | GI50 (UO-31): 66.7 µM (inactive) | GI50 (BT-549): > 100 µM (inactive) | GI50 (NCI-H522): 70.6 µM (inactive) | GI50 (SF-539): > 100 µM (inactive) | GI50 (NCI-H460): > 100 µM (inactive) | GI50 (SK-MEL-28): > 100 µM (inactive) | GI50 (HT-29): > 100 µM (inactive) | GI50 (NCI-H23): > 100 µM (inactive) | GI50 (KM12): > 100 µM (inactive) | GI50 (OVCAR-5): > 100 µM (inactive) | GI50 (U-251): > 100 µM (inactive) | GI50 (M14): > 100 µM (inactive) | GI50 (T47D): 75 µM (inactive)
